The record followed here is PubChem BioAssay (NCI).

Some test systems named below: HOP-62 NSCLC; SW-620 colon; EKVX NSCLC; SR leukemia; NCI-H23 lung; MOLT-4 leukemia; NCI-H522 lung; MDA-MB-435.
Experiment in all cases: NCI-60 cell line screen, 48 h

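Each compound was tested at five concentrations against cells in 96-well plates for 48 hours. Here, GI50 denotes the concentration required for 50% inhibition of growth. TGI: concentration producing complete growth inhibition.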

`Cc1cc2c(=O)c3ccccc3oc2c(C#N)c1C`: the TGI in the experiment with HOP-62 NSCLC, in the experiment on SW-620 colon, with EKVX NSCLC, in the experiment on SR leukemia, with NCI-H23 lung and in the experiment on MOLT-4 leukemia was over 100 µM throughout.
Consider `Cc1[nH]c2ccccc2c1C1=CC(=O)C=CC1=O`, for which the GI50 with SW-620 colon was 4.55 µM; in the experiment with EKVX NSCLC, 17.7 µM; in the experiment with NCI-H23 lung, 13 µM; in the experiment on NCI-H522 lung it was 1.66 µM; with MDA-MB-435 it was 5.04 µM. Besides, the TGI in the experiment on SW-620 colon worked out at 23 µM; in the experiment on EKVX NSCLC, 45 µM; with NCI-H23 lung it was 31.5 µM; in the experiment on NCI-H522 lung, 3.28 µM; with MDA-MB-435, 23.5 µM.
Consider `O=C(OC(CNc1c(C(=O)c2ccccc2)c(=O)n(Cc2ccccc2)c(=O)n1Cc1ccccc1)CN1CCCCC1)c1ccccc1` (stereo unspecified), for which the GI50 in the experiment on HOP-62 NSCLC is 18 µM; in the experiment on SW-620 colon, 35.7 µM; with EKVX NSCLC, 38.3 µM; in the experiment with NCI-H23 lung, 18.5 µM; in the experiment on NCI-H522 lung, 21.1 µM; in the experiment on MDA-MB-435, 18.5 µM. The TGI was 33.6 µM in the experiment on HOP-62 NSCLC; over 100 µM with SW-620 colon; over 100 µM in the experiment on EKVX NSCLC; 39.2 µM in the experiment with NCI-H23 lung; 40.7 µM with NCI-H522 lung; 37.7 µM in the experiment on MDA-MB-435.
With `NCC(=O)NC(CO)C(=O)O` (stereo unspecified), the TGI with HOP-62 NSCLC, in the experiment on SW-620 colon, in the experiment on EKVX NSCLC, with NCI-H23 lung, in the experiment on NCI-H522 lung and in the experiment on MOLT-4 leukemia was over 100 µM each time. The TGI with MDA-MB-435 was over 100 µM.
With `COc1cc(C2C(C(=O)OCc3ccccc3)=C(C)NC(C)=C2C(=O)OCc2ccccc2)cc(OC)c1OC`, the GI50 with HOP-62 NSCLC is 12.1 µM; in the experiment with EKVX NSCLC, 2.81 µM; with SR leukemia, 2.22 µM; with NCI-H522 lung it was 3.57 µM; with MOLT-4 leukemia it was 1.31 µM. In addition, the TGI in the experiment on HOP-62 NSCLC was 66.5 µM; in the experiment on EKVX NSCLC, over 100 µM; in the experiment on SR leukemia, over 100 µM; in the experiment with NCI-H522 lung, over 100 µM; in the experiment with MOLT-4 leukemia it was over 100 µM.
On to `[O]=[W](=[O])([OH])[OH]`, for which the GI50 with SW-620 colon, in the experiment with SR leukemia, in the experiment with NCI-H23 lung, in the experiment on NCI-H522 lung, with MOLT-4 leukemia and in the experiment with MDA-MB-435 was over 100 µM throughout. The TGI in the experiment with SW-620 colon, in the experiment on SR leukemia, with NCI-H23 lung, in the experiment with NCI-H522 lung, in the experiment with MOLT-4 leukemia and with MDA-MB-435 was over 100 µM in each case.
`CCNC(=O)c1ccc2c(c1)nc(-c1ccc(Cl)cc1)n2-c1cc(C(C)(C)C)[nH]n1`: the GI50 was 5.41 µM with HOP-62 NSCLC; 3.14 µM in the experiment on EKVX NSCLC; 1.06 µM with SR leukemia; 2.78 µM with NCI-H23 lung; 2.7 µM in the experiment with NCI-H522 lung; 3.49 µM in the experiment with MOLT-4 leukemia. For the same compound, in the experiment with MDA-MB-435, the GI50 is 1.09 µM. The TGI with HOP-62 NSCLC is 36.2 µM; in the experiment with EKVX NSCLC, over 100 µM; in the experiment on SR leukemia, 9.32 µM; in the experiment on NCI-H23 lung, 20.3 µM; in the experiment on NCI-H522 lung, 9.6 µM; in the experiment on MOLT-4 leukemia it was 25.1 µM. The same compound displayed a TGI with MDA-MB-435 of 5.35 µM.
For the compound `O=C(Nc1cccc(-n2cc(-c3ccncc3)c(-c3ccc(O)c(Cl)c3)n2)c1)c1ccc(N2CCOCC2)c(C(F)(F)F)c1`, the GI50 was 3.07 µM in the experiment on HOP-62 NSCLC; 4.05 µM with SW-620 colon; 1.05 µM in the experiment on SR leukemia; 3.95 µM in the experiment with NCI-H23 lung; 2.22 µM in the experiment on NCI-H522 lung; 2.33 µM with MOLT-4 leukemia. Besides, the GI50 with MDA-MB-435 was 5 µM. In addition, the TGI in the experiment with HOP-62 NSCLC, in the experiment on SW-620 colon, with SR leukemia, in the experiment with NCI-H23 lung, in the experiment on NCI-H522 lung and in the experiment on MOLT-4 leukemia was over 50 µM each time. In the experiment with MDA-MB-435, this compound displayed a TGI of over 50 µM.
Regarding `COc1ccc2cc(C(=O)/C=C/c3ccco3)ccc2c1`, the GI50 in the experiment with SW-620 colon is 35 µM; in the experiment with EKVX NSCLC, 6.33 µM; in the experiment on SR leukemia, 16.2 µM; in the experiment with NCI-H23 lung it was 19.5 µM; in the experiment on NCI-H522 lung it was 19.7 µM; in the experiment on MOLT-4 leukemia, 41.7 µM. The GI50 with MDA-MB-435 is 34.2 µM. The TGI with SW-620 colon is over 100 µM; in the experiment on EKVX NSCLC, 26.2 µM; with SR leukemia it was 68.2 µM; in the experiment on NCI-H23 lung, 42.7 µM; in the experiment on NCI-H522 lung, 58.5 µM; in the experiment with MOLT-4 leukemia, over 100 µM. The compound also gave a TGI in the experiment on MDA-MB-435 of over 100 µM.
On to `Cc1cn2c(/C=N/N=C(N)N)c(-c3cc(Cl)sc3Cl)nc2s1`, for which, in the experiment on NCI-H23 lung, the GI50 was 0.904 µM and the TGI was determined as 1.66 µM. In the experiment on MOLT-4 leukemia, the GI50 is 1.17 µM and the TGI amounted to 2.06 µM.
Regarding `CS(=O)(=O)c1ccc(-c2[nH]c3ccc(F)cc3c2/C=N/NC(N)=S)cc1`, the GI50 is 1.64 µM in the experiment on HOP-62 NSCLC; 0.575 µM with SW-620 colon; 3.94 µM in the experiment with EKVX NSCLC; 0.329 µM with SR leukemia; 4.66 µM in the experiment on NCI-H23 lung; 0.466 µM in the experiment on NCI-H522 lung. In the experiment on MOLT-4 leukemia, the GI50 was 0.981 µM. The TGI with HOP-62 NSCLC is over 100 µM; with SW-620 colon it was over 100 µM; with EKVX NSCLC, over 100 µM; with SR leukemia it was 32.8 µM; in the experiment on NCI-H23 lung, over 100 µM; with NCI-H522 lung, 3.75 µM. For the same compound, the TGI in the experiment with MOLT-4 leukemia was 24 µM.
Regarding `O=C(O)CP(=O)(c1ccccc1)c1ccccc1.O=C(O)CP(=O)(c1ccccc1)c1ccccc1.[Cd]`, the GI50 with HOP-62 NSCLC was 18.6 µM; with SW-620 colon it was 19.6 µM; with SR leukemia it was 13.6 µM; in the experiment on NCI-H23 lung, 20.2 µM; in the experiment with NCI-H522 lung, 0.403 µM; in the experiment with MOLT-4 leukemia, 33.4 µM. Besides, the GI50 in the experiment on MDA-MB-435 was 4.26 µM. In addition, the TGI in the experiment with HOP-62 NSCLC stood at 46.1 µM; in the experiment with SW-620 colon, 42.6 µM; in the experiment on SR leukemia, 31.8 µM; in the experiment on NCI-H23 lung, 41.9 µM; with NCI-H522 lung it was 2.77 µM; with MOLT-4 leukemia, 52.4 µM. This compound gave a TGI in the experiment on MDA-MB-435 of 22.4 µM.
